Measurements from US20240217978A1 (CHONG KUN DANG PHARMACEUTICAL CORP., priority 2021, published 2024).

Molecular target: human adenosine A2a receptor (Homo sapiens (Human), UniProt P29274)
Test: A2a receptor binding affinity, [3H]-NECA radioligand binding test
Conditions: [3H]-NECA 37 nM; membrane from HEK-293 cells transfected with human adenosine A2a receptor
Summary of the method: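 IC50 values (μM) come from displacement of [3H]-NECA, used at 37 nM final, on human A2a receptor membranes from transfected HEK-293 cells. Incubation lasted one hour at room temperature in Tris/MgCl2/EDTA buffer, pH 7.4; filter-bound radioactivity was counted by scintillation.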

Sequence of human adenosine A2a receptor (P29274 whole entry): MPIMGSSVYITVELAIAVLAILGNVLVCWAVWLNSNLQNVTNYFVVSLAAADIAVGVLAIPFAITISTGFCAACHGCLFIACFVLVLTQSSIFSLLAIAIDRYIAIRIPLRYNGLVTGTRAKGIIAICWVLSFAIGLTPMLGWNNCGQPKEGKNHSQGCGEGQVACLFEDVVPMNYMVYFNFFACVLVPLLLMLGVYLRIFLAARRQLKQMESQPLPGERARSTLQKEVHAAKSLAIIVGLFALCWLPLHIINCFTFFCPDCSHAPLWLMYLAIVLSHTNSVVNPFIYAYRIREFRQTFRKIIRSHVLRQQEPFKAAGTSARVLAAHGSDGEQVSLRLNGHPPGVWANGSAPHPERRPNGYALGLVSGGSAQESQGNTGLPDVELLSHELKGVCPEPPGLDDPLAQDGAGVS

Structure (SMILES)	IC50 [nM]
COc1cccc(CN2CCN(C(=O)[C@H](C)Nc3nc(N)n4nc(-c5ccco5)nc4n3)CC2)c1 [Example 24, (S)-2-((7-amino-2-(furan-2-yl)-[1,2,4]triazolo[1,5-a][1,3,5]triazin-5-yl)amino)-1-(4-(3-methoxybenzyl)piperazin-1-yl)propan-1-one]	33
Cc1ccc(-c2nc3nc(N4CCC[C@H]4C(=O)N4CCN(CC(F)(F)C(F)(F)F)CC4)nc(N)n3n2)o1 [Example 299, (S)-(1-(7-amino-2-(5-methylfuran-2-yl)-[1,2,4]triazolo[1,5-a][1,3,5]triazin-5-yl)pyrrolidin-2-yl)(4-(2,2,3,3,3-pentafluoropropyl)piperazin-1-yl)methanone]	9
Nc1nc(N[C@@H](CO)C(=O)N2CCN(c3ccc(F)cc3F)CC2)nc2nc(-c3ccco3)nn12 [Example 8, (S)-2-((7-amino-2-(furan-2-yl)-[1,2,4]triazolo[1,5-a][1,3,5]triazin-5-yl)amino)-1-(4-(2,4-difluorophenyl)piperazin-1-yl)-3-hydroxypropan-1-one]	1.92
Nc1nc(N2CCC[C@H]2C(=O)N2CCn3nc(C(F)(F)F)nc3C2)nc2nc(-c3ccco3)nn12 [Example 309]	21
Nc1nc(NCC(=O)N2CCN(Cc3ccc(F)cc3F)CC2)nc2nc(-c3ccco3)nn12 [Example 15, 2-((7-amino-2-(furan-2-yl)-[1,2,4]triazolo[1,5-a][1,3,5]triazin-5-yl)amino)-1-(4-(2,4-difluorobenzyl)piperazin-1-yl)ethan-1-one]	6.02
CCC[C@H](Nc1nc(N)n2nc(-c3ccco3)nc2n1)C(=O)N1CCN(CC(F)(F)F)CC1 [Example 212, (S)-2-((7-amino-2-(furan-2-yl)-[1,2,4]triazolo[1,5-a][1,3,5]triazin-5-yl)amino)-1-(4-(2,2,2-trifluoroethyl)piperazin-1-yl)pentan-1-one]	12
Nc1nc(N2CCC[C@H]2C(=O)N2CCN(c3ccc(F)cc3)CC2)nc2nc(-c3ccco3)nn12 [Example 121, (S)-(1-(7-amino-2-(furan-2-yl)-[1,2,4]triazolo[1,5-a][1,3,5]triazin-5-yl)pyrrolidin-2-yl)(4-(4-fluorophenyl)piperazin-1-yl)methanone]	6
Cc1ccc(-c2nc3nc(N4CC[C@H]4C(=O)N4CCN(c5ncccn5)CC4)nc(N)n3n2)o1 [Example 210, (S)-(1-(7-amino-2-(5-methylfuran-2-yl)-[1,2,4]triazolo[1,5-a][1,3,5]triazin-5-yl)azetidin-2-yl)(4-(pyrimidin-2-yl)piperazin-1-yl)methanone]	1
Nc1nc(N2CCC[C@H]2C(=O)N2CCN(S(=O)(=O)CCOc3ccccc3)CC2)nc2nc(-c3ccco3)nn12 [Example 70, (S)-(1-(7-amino-2-(furan-2-yl)-[1,2,4]triazolo[1,5-a][1,3,5]triazin-5-yl)pyrrolidin-2-yl)(4-((2-phenoxyethyl)sulfonyl)piperazin-1-yl)methanone]	4
CC1CN(C(=O)[C@@H]2CCCN2c2nc(N)n3nc(-c4ccco4)nc3n2)CC(C)N1Cc1ccc(F)cc1F (stereo partly drawn) [Example 49, ((S)-1-(7-amino-2-(furan-2-yl)-[1,2,4]triazolo[1,5-a][1,3,5]triazin-5-yl)pyrrolidin-2-yl)(4-(2,4-difluorobenzyl)-3,5-dimethylpiperazin-1-yl)methanone]	3

More lines, now with the values ahead:

IC50 [nM]	Structure (SMILES)
13	Nc1nc(N2CCC[C@H]2C(=O)N2CCC(C3CCN(CC(F)F)CC3)CC2)cc2nc(-c3ccco3)nn12 [Example 393, (S)-(1-(5-amino-2-(furan-2-yl)-[1,2,4]triazolo[1,5-c]pyrimidin-7-yl)pyrrolidin-2-yl)(1′-(2,2-difluoroethyl)-[4,4′-bipiperidin]-1-yl)methanone]
17	CCC(O)(CC)CN1CCN(C(=O)[C@@H]2CCN2c2nc(N)n3nc(-c4ccco4)nc3n2)CC1 [Example 347, (S)-(1-(7-amino-2-(furan-2-yl)-[1,2,4]triazolo[1,5-a][1,3,5]triazin-5-yl)azetidin-2-yl)(4-(2-ethyl-2-hydroxybutyl)piperazin-1-yl)methanone]
0.1	Nc1nc(N2CC[C@H]2C(=O)N2CCC(C3CCN(CC(F)(F)F)CC3)CC2)cc2nc(-c3ccco3)nn12 [Example 377, (S)-(1-(5-amino-2-(furan-2-yl)-[1,2,4]triazolo[1,5-c]pyrimidin-7-yl)azetidin-2-yl)(1′-(2,2,2-trifluoroethyl)-[4,4′-bipiperidin]-1-yl)methanone]
5	C[C@H](Nc1nc(N)n2nc(-c3ccco3)nc2n1)C(=O)N1CCC(C2CCN(CC(C)(C)F)CC2)CC1 [Example 332, (S)-2-((7-amino-2-(furan-2-yl)-[1,2,4]triazolo[1,5-a][1,3,5]triazin-5-yl)amino)-1-(1′-(2-fluoro-2-methylpropyl)-[4,4′-bipiperidin]-1-yl)propan-1-one]
8	Nc1nc(N2CCC[C@H]2C(=O)N2CCN(C(=O)CO)CC2)nc2nc(-c3ccco3)nn12 [Example 237, 1-(4-((7-amino-2-(furan-2-yl)-[1,2,4]triazolo[1,5-a][1,3,5]triazin-5-yl)-L-prolyl)piperazin-1-yl)-2-hydroxyethan-1-one]
9	C[C@H](Nc1nc(N)n2nc(-c3ccco3)nc2n1)C(=O)N1CCN(CC(C)(C)F)CC1 [Example 119, (S)-2-((7-amino-2-(furan-2-yl)-[1,2,4]triazolo[1,5-a][1,3,5]triazin-5-yl)amino)-1-(4-(2-fluoro-2-methylpropyl)piperazin-1-yl)propan-1-one]
4390	Nc1nc(N2CCC[C@@H]2C(=O)N2CCN(CC(F)(F)F)CC2)nc2nc(-c3ccco3)nn12 [Example 94, (R)-(1-(7-amino-2-(furan-2-yl)-[1,2,4]triazolo[1,5-a][1,3,5]triazin-5-yl)pyrrolidin-2-yl)(4-(2,2,2-trifluoroethyl)piperazin-1-yl)methanone]
4	CCc1cccc(NC(=O)C2CCN(C(=O)[C@@H]3CCCN3c3nc(N)n4nc(-c5ccco5)nc4n3)CC2)c1 [Example 131, 1-((7-amino-2-(furan-2-yl)-[1,2,4]triazolo[1,5-a][1,3,5]triazin-5-yl)-L-prolyl)-N-(3-ethylphenyl)piperidin-4-carboxamide]
3	CC(C)(F)CN1CCC(C2CCN(C(=O)[C@@H]3CCN3c3cc4nc(-c5ccco5)nn4c(N)n3)CC2)CC1 [Example 382, (S)-(1-(5-amino-2-(furan-2-yl)-[1,2,4]triazolo[1,5-c]pyrimidin-7-yl)azetidin-2-yl)(1′-(2-fluoro-2-methylpropyl)-[4,4′-bipiperidin]-1-yl)methanone]
1	C[C@H](Nc1nc(N)n2nc(-c3ccco3)nc2n1)C(=O)N1CCC(C2CCN(CC(C)(F)F)CC2)CC1 [Example 335, (S)-2-((7-amino-2-(furan-2-yl)-[1,2,4]triazolo[1,5-a][1,3,5]triazin-5-yl)amino)-1-(1′-(2,2-difluoropropyl)-[4,4′-bipiperidin]-1-yl)propan-1-one]
28	CC(C)(F)C(=O)N1CCN(C(=O)[C@@H]2CCCN2c2nc(N)n3nc(-c4ccco4)nc3n2)CC1 [Example 85, 1-(4-((7-amino-2-(furan-2-yl)-[1,2,4]triazolo[1,5-a][1,3,5]triazin-5-yl)-L-prolyl)piperazin-1-yl)-2-fluoro-2-methylpropan-1-one]
